How the values were obtained:
Test in all cases: relative viability (nuclei count vs DMSO), 5 days (fraction); higher = more cells survive
[1] = compound: C1CC(C1)(C(=O)O)C(=O)O.[NH2-].[NH2-].[Pt+2] [Carboplatin] + CC(=O)Nc1cccc(-n2c(=O)n(C3CC3)c(=O)c3c(Nc4ccc(I)cc4F)n(C)c(=O)c(C)c32)c1 [Trametinib] (partner 0.02 µM)
Method in brief: (§1)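 Medians of duplicate plates are given as relative viability. That measure is the nuclei count in treated wells divided by the count in vehicle wells. Counts were taken on 4× images of lung cancer cell lines in 1536-well plates, 5 days after pin-tool dosing the day after seeding with one drug alone or a fixed anchor-drug dose plus five library-drug doses (not always all listed) in √10 steps.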

[2] = compound: NS(=O)(=O)OC[C@@H]1C[C@@H](n2ccc3c(N[C@H]4CCc5ccccc54)ncnc32)C[C@@H]1O [MLN4924] + CC1(C)CCC(c2ccc(Cl)cc2)=C(CN2CCN(c3ccc(C(=O)NS(=O)(=O)c4ccc(N[C@H](CCN5CCOCC5)CSc5ccccc5)c(S(=O)(=O)C(F)(F)F)c4)cc3)CC2)C1 [Navitoclax] (partner 0.5 µM)
Method in brief: as §1

[3] = compound: NS(=O)(=O)OC[C@@H]1C[C@@H](n2ccc3c(N[C@H]4CCc5ccccc54)ncnc32)C[C@@H]1O [MLN4924] + N=C(N)NC(=N)NCCc1ccccc1 [Phenformin] (partner 250 µM)
Method in brief: as §1

[4] = compound: NS(=O)(=O)OC[C@@H]1C[C@@H](n2ccc3c(N[C@H]4CCc5ccccc54)ncnc32)C[C@@H]1O [MLN4924] + O=C(c1cc(Cc2n[nH]c(=O)c3ccccc23)ccc1F)N1CCN(C(=O)C2CC2)CC1 [Olaparib] (partner 8 µM)
Method in brief: as §1

| Cell Line | relative viability ([1]; first compound 0.08 µM) | relative viability ([1]; first compound 0.253 µM) | relative viability ([1]; first compound 0.8 µM) | relative viability ([1]; first compound 2.53 µM) | relative viability ([1]; first compound 8 µM) | relative viability ([2]; first compound 0.04 µM) | relative viability ([2]; first compound 0.1265 µM) | relative viability ([2]; first compound 0.4 µM) | relative viability ([2]; first compound 1.265 µM) | relative viability ([2]; first compound 4 µM) | relative viability ([3]; first compound 0.04 µM) | relative viability ([3]; first compound 0.1265 µM) | relative viability ([3]; first compound 0.4 µM) | relative viability ([3]; first compound 1.265 µM) | relative viability ([3]; first compound 4 µM) | relative viability ([4]; first compound 0.04 µM) | relative viability ([4]; first compound 0.1265 µM) | relative viability ([4]; first compound 0.4 µM) | relative viability ([4]; first compound 1.265 µM) | relative viability ([4]; first compound 4 µM) |
| --- | --- | --- | --- | --- | --- | --- | --- | --- | --- | --- | --- | --- | --- | --- | --- | --- | --- | --- | --- | --- |
| 201T | 0.833 | 0.693 | 0.699 | 0.714 | 0.694 | 1.28 | 1.21 | 1.2 | 0.514 | 0.556 | 0.553 | 0.555 | 0.43 | 0.278 | 0.327 | 0.832 | 0.589 | 0.548 | 0.225 | 0.267 |
| A549 |  |  |  |  |  | 1.02 | 0.991 | 0.197 | 0.04 | 0.0449 | 0.0967 | 0.154 | 0.0425 | 0.0445 | 0.0437 | 0.349 | 0.28 | 0.0869 | 0.045 | 0.0539 |
| A-427 | 0.85 | 0.812 | 0.747 | 0.81 | 0.739 | 0.468 | 0.321 | 0.273 | 0.221 | 0.227 | 0.193 | 0.165 | 0.171 | 0.146 | 0.151 | 0.467 | 0.335 | 0.296 | 0.24 | 0.241 |
| ABC-1 |  |  |  |  |  |  |  |  |  |  | 0.274 | 0.298 | 0.229 | 0.212 | 0.222 | 0.997 | 0.878 | 0.779 | 0.275 | 0.294 |
| BEN | 1.2 | 0.928 | 0.97 | 0.893 | 0.865 | 0.0403 | 0.0516 | 0.045 | 0.0476 | 0.0518 | 0.214 | 0.185 | 0.218 | 0.183 | 0.145 | 0.662 | 0.328 | 0.264 | 0.189 | 0.207 |
| CAL-12T | 0.385 | 0.352 | 0.299 | 0.33 | 0.365 | 1.11 | 1.11 | 0.469 | 0.398 | 0.204 | 0.511 | 0.511 | 0.292 | 0.214 | 0.129 | 0.667 | 0.538 | 0.249 | 0.17 | 0.13 |
| COR-L23 | 0.619 | 0.645 | 0.559 | 0.509 | 0.229 | 0.948 | 0.885 | 0.568 | 0.275 | 0.113 | 0.42 | 0.332 | 0.326 | 0.133 | 0.0871 | 0.32 | 0.331 | 0.199 | 0.124 | 0.114 |
| COR-L 105 | 0.472 | 0.445 | 0.441 | 0.456 | 0.442 | 0.725 | 0.511 | 0.326 | 0.231 | 0.281 | 0.567 | 0.366 | 0.325 | 0.244 | 0.301 | 0.5 | 0.568 | 0.427 | 0.278 | 0.335 |
| Calu-6 |  |  |  |  |  | 0.667 | 0.232 | 0.162 | 0.119 | 0.128 |  |  |  |  |  | 0.369 | 0.268 | 0.167 | 0.0976 | 0.0925 |
| ChaGo-K-1 | 0.857 | 0.917 | 0.831 | 0.717 | 0.546 | 0.708 | 0.574 | 0.394 | 0.309 | 0.326 | 0.315 | 0.298 | 0.24 | 0.199 | 0.176 | 0.279 | 0.205 | 0.227 | 0.153 | 0.147 |
| EBC-1 |  |  |  |  |  | 0.348 | 0.262 | 0.172 | 0.112 | 0.139 |  |  |  |  |  | 0.558 | 0.259 | 0.134 | 0.0918 | 0.115 |
| EKVX | 0.324 | 0.342 | 0.332 | 0.359 | 0.327 | 0.861 | 0.816 | 0.352 | 0.173 | 0.148 | 0.228 | 0.221 | 0.239 | 0.175 | 0.138 | 0.801 | 0.588 | 0.531 | 0.206 | 0.169 |
| EMC-BAC-2 | 0.899 | 0.825 | 0.924 | 0.832 | 0.686 | 1.02 | 0.486 | 0.271 | 0.16 | 0.159 | 0.37 | 0.424 | 0.296 | 0.193 | 0.218 | 0.397 | 0.286 | 0.225 | 0.214 | 0.241 |
| EPLC-272H | 0.302 | 0.317 | 0.334 | 0.273 | 0.303 | 0.94 | 1.02 | 0.104 | 0.12 | 0.141 | 0.343 | 0.325 | 0.0478 | 0.103 | 0.126 | 0.352 | 0.176 | 0.0677 | 0.0995 | 0.105 |
| H3255 | 0.699 | 0.83 | 0.754 | 0.588 | 0.474 | 0.592 | 0.434 | 0.226 | 0.131 | 0.175 | 0.374 | 0.331 | 0.265 | 0.264 | 0.325 | 0.481 | 0.372 | 0.297 | 0.253 | 0.268 |

Source: the supplement of paper PMC10307832
